Data reported in patent US9850203B2, “Autotaxin inhibitor compounds” (PharmAkea, Inc., priority 2013, dated 2017).

target: human autotaxin (ATX) (Homo sapiens (Human), UniProt Q13822); test: Human Autotaxin Assay; assay type: biochemical; details: concentrated conditioned media from Hep3B cells; LPC substrate, choline release
Protocol: ATX activity is assayed in concentrated conditioned media from Hep3B human hepatocellular carcinoma cells by measuring the amount of choline released from the substrate, lysophosphatidylcholine (LPC) as it is cleaved to LPA. Conditioned media is collected from confluent Hep3B cells and concentrated 20-fold using Centriprep-30 filter devices (Millipore). To assay for autotaxin inhibition, 10-20 μL of the concentrated conditioned media is incubated with 2.5 μL of a test compound in DMSO and 72.5-82.5 μL lyso-PLD buffer (100 mM Tris pH 9, 500 mM NaCl, 5 mM MgCl2, 5 mM CaCl2, 0.05% Triton X-100 in the presence or absence of 0.2% fatty-acid-free human serum albumin) for 15 min at 37° C. After the 15 min incubation, 5 uL of 2 mM LPC (14:0; Avanti Polar Lipids Cat#855575C) diluted in lyso-PLD buffer is added for a final concentration of 100 uM and the incubation continues for 1.5-3 hours at 37° C.

IC50 [nM] | SMILES
≤ 500 | Cc1c(Sc2cccc(C(=O)O)c2F)c2ccc(Cl)c(F)c2n1CC(=O)N1C[C@H](O)[C@@H](N(C)C)C1 [Compound 2-69, 3-((6-Chloro-1-(2-((3S,4S)-3-(dimethylamino)-4-hydroxypyrrolidin-1-yl)-2-oxoethyl)-7-fluoro-2-methyl-1H-indol-3-yl)thio)-2-fluorobenzoic acid]
≤ 500 | Cc1c(Sc2cccc(C(=O)O)c2F)c2ccc(Cl)c(F)c2n1CC(=O)N1CCC2(C1)OCCO2 [Compound 2-72, 3-((6-Chloro-7-fluoro-2-methyl-1-(2-oxo-2-(1,4-dioxa-7-azaspiro[4.4]nonan-7-yl)ethyl)-1H-indol-3-yl)thio)-2-fluorobenzoic acid]
≤ 500 | Cc1c(Sc2cccc(C(=O)O)c2F)c2ccc(Cl)c(F)c2n1CC(=O)N1C[C@H](O)[C@@H](N2CCOCC2)C1 [Compound 2-65, 3-((6-Chloro-7-fluoro-1-(2-((3S,4S)-3-hydroxy-4-morpholinopyrrolidin-1-yl)-2-oxoethyl)-2-methyl-1H-indol-3-yl)thio)-2-fluorobenzoic acid]
≤ 500 | Cc1c(Sc2cccc(C(=O)O)c2F)c2ccc(Cl)c(F)c2n1CC(=O)N1CCC(O)(c2ccccc2)C1 (centres unmarked) [Compound 2-68, 3-((6-Chloro-7-fluoro-1-(2-(3-hydroxy-3-phenylpyrrolidin-1-yl)-2-oxoethyl)-2-methyl-1H-indol-3-yl)thio)-2-fluorobenzoic acid]
≤ 500 | O=C(O)c1cccc(Sc2c(Cl)n(CC(=O)N3CC4(CCC4)c4ccccc43)c3c(F)c(Cl)ccc23)c1F [Compound 4-121, Sodium 3-((2,6-dichloro-7-fluoro-1-(2-oxo-2-(spiro[cyclobutane-1,3′-indolin]-1′-yl)ethyl)-1H-indol-3-yl)thio)-2-fluorobenzoate]
≤ 500 | Cc1c(Sc2cccc(C(=O)O)c2F)c2ccc(Cl)c(F)c2n1CC(=O)N1CC2(CCCC2)c2ccccc21 [Compound 3-221, 3-((6-Chloro-7-fluoro-2-methyl-1-(2-oxo-2-(spiro[cyclopentane-1,3′-indolin]-1′-yl)ethyl)-1H-indol-3-yl)thio)-2-fluorobenzoic acid]
≤ 500 | Cc1c(Sc2cccc(C(=O)O)c2F)c2ccc(Cl)c(F)c2n1CC(=O)N1C[C@H](O)[C@@H](N2CCN(C)CC2)C1 [Compound 2-70, 3-((6-Chloro-7-fluoro-1-(2-((3S,4S)-3-hydroxy-4-(4-methylpiperazin-1-yl)pyrrolidin-1-yl)-2-oxoethyl)-2-methyl-1H-indol-3-yl)thio)-2-fluorobenzoic acid]
≤ 500 | Cc1c(Sc2cccc(C(=O)O)c2F)c2ccc(Cl)c(F)c2n1CC(=O)N1CC(O)(C2CC2)C1 [Compound 2-63, 3-((6-Chloro-1-(2-(3-cyclopropyl-3-hydroxyazetidin-1-yl)-2-oxoethyl)-7-fluoro-2-methyl-1H-indol-3-yl)thio)-2-fluorobenzoic acid]
≤ 500 | O=C(O)c1cccc(Sc2c(C3CC3)n(CCN3CCc4ccccc43)c3c(F)c(Cl)ccc23)c1F [Compound 5-4, Sodium 3-((6-chloro-2-cyclopropyl-7-fluoro-1-(2-(indolin-1-yl)ethyl)-1H-indol-3-yl)thio)-2-fluorobenzoate]

Second part, the molecule before the results:

SMILES | IC50 [nM]
Cc1c(Sc2cccc(C(=O)O)c2)c2ccc(Cl)c(F)c2n1CC(=O)N1CCCC2(CNC(=O)C2)C1 (centres unmarked) [Compound 1-35, 3-((6-Chloro-7-fluoro-2-methyl-1-(2-oxo-2-(3-oxo-2,7-diazaspiro[4.5]decan-7-yl)ethyl)-1H-indol-3-yl)thio)benzoic acid] | ≤ 500
Cc1c(Sc2cccc(C(=O)O)c2)c2ccc(Cl)c(F)c2n1CC(=O)N1CC(C)(C)c2ccc(F)cc21 [Compound 1-34, 3-((6-Chloro-7-fluoro-1-(2-(6-fluoro-3,3-dimethylindolin-1-yl)-2-oxoethyl)-2-methyl-1H-indol-3-yl)thio)benzoic acid] | ≤ 500
Cc1c(Sc2cccc(C(=O)O)c2)c2ccc(Cl)c(F)c2n1CC(=O)N1CCCCC1 [Compound 1-10, 3-((6-Chloro-7-fluoro-2-methyl-1-(2-oxo-2-(piperidin-1-yl)ethyl)-1H-indol-3-yl)thio)benzoic acid] | ≤ 500
Cc1c(Sc2cccc(C(=O)O)c2)c2ccc(Cl)c(F)c2n1CC(=O)N1CCCc2ccccc21 [Compound 1-36, 3-((6-Chloro-1-(2-(3,4-dihydroquinolin-1(2H)-yl)-2-oxoethyl)-7-fluoro-2-methyl-1H-indol-3-yl)thio)benzoic acid] | ≤ 500
Cc1c(Sc2cccc(C(=O)O)c2)c2ccc(Cl)c(F)c2n1CC(=O)N1CCC2(CC1)CNC(=O)O2 [Compound 1-12] | ≤ 500
Cc1ccc2c(c1)CCN2C(=O)Cn1c(C)c(Sc2cccc(C(=O)O)c2)c2ccc(Cl)c(F)c21 [Compound 1-92, 3-((6-Chloro-7-fluoro-2-methyl-1-(2-(5-methylindolin-1-yl)-2-oxoethyl)-1H-indol-3-yl)thio)benzoic acid] | ≤ 500
Cc1c(Sc2cccc(C(=O)O)c2)c2ccc(Cl)c(F)c2n1CC(=O)N1Cc2ccccc2C1 [Compound 1-91, 3-((6-Chloro-7-fluoro-1-(2-(isoindolin-2-yl)-2-oxoethyl)-2-methyl-1H-indol-3-yl)thio)benzoic acid] | ≤ 500
Cc1c(Sc2cccc(C(=O)O)c2)c2ccc(Cl)c(F)c2n1CC(=O)N1CCC(CCc2ccccc2)CC1 [Compound 1-62, 3-((6-Chloro-7-fluoro-2-methyl-1-(2-oxo-2-(4-phenethylpiperidin-1-yl)ethyl)-1H-indol-3-yl)thio)benzoic acid] | 500 to 3000
Cc1c(Sc2cccc(C(=O)O)c2)c2ccc(Cl)c(F)c2n1CC(=O)N1CCC(c2ccc(F)cc2)C1 (single isomer, unassigned; enantiomer b) [Compound 1-75, 3-((6-Chloro-7-fluoro-1-(2-(3-(4-fluorophenyl)pyrrolidin-1-yl)-2-oxoethyl)-2-methyl-1H-indol-3-yl)thio)benzoic acid Enantiomer B] | ≤ 500
Cc1c(Sc2cccc(C(=O)O)c2)c2ccc(Cl)c(F)c2n1CC(=O)N1CCCC1=O [Compound 1-59, 3-((6-Chloro-7-fluoro-2-methyl-1-(2-oxo-2-(2-oxopyrrolidin-1-yl)ethyl)-1H-indol-3-yl)thio)benzoic acid] | 500 to 3000
Cc1c(Sc2cccc(C(=O)O)c2)c2ccc(Cl)c(F)c2n1CC(=O)N1CCC(Cc2ccc(F)cc2)C1 (single isomer, unassigned; enantiomer a) [Compound 1-65, 3-((6-Chloro-7-fluoro-1-(2-(3-(4-fluorobenzyl)pyrrolidin-1-yl)-2-oxoethyl)-2-methyl-1H-indol-3-yl)thio)benzoic acid Enantiomer A] | ≤ 500
Cc1c(Sc2cccc(C(=O)O)c2)c2ccc(Cl)c(F)c2n1CCC(=O)N1CCCC1 [Compound 1-25, 3-((6-Chloro-7-fluoro-2-methyl-1-(3-oxo-3-(pyrrolidin-1-yl)propyl)-1H-indol-3-yl)thio)benzoic acid] | ≤ 500
Cc1c(Sc2cccc(C(=O)O)c2)c2ccc(Cl)c(F)c2n1CC(=O)N1CCC(Cc2ccc(F)cc2)CC1 [Compound 1-60, 3-((6-Chloro-7-fluoro-1-(2-(4-(4-fluorobenzyl)piperidin-1-yl)-2-oxoethyl)-2-methyl-1H-indol-3-yl)thio)benzoic acid] | 500 to 3000
Cc1c(Sc2cccc(C(=O)O)c2)c2ccc(Cl)c(F)c2n1CC(=O)NC1CCCCC1 [Compound 1-2, 3-((6-Chloro-1-(2-(cyclohexylamino)-2-oxoethyl)-7-fluoro-2-methyl-1H-indol-3-yl)thio)benzoic acid] | 500 to 3000
Cc1c(Sc2cccc(C(=O)O)c2)c2ccc(Cl)c(F)c2n1CC(=O)N1CCC(C)(C)CC1 [Compound 1-44, 3-((6-Chloro-1-(2-(4,4-dimethylpiperidin-1-yl)-2-oxoethyl)-7-fluoro-2-methyl-1H-indol-3-yl)thio)benzoic acid] | ≤ 500
Cc1c(Sc2cccc(C(=O)O)c2)c2ccc(Cl)c(F)c2n1CC(=O)Nc1cnoc1 [Compound 1-11, 3-((6-Chloro-7-fluoro-1-(2-(isoxazol-4-ylamino)-2-oxoethyl)-2-methyl-1H-indol-3-yl)thio)benzoic acid] | 500 to 3000
Cc1c(Sc2cccc(C(=O)O)c2)c2ccc(Cl)c(F)c2n1CC(=O)N1CC(N2CCS(=O)(=O)CC2)C1 [Compound 1-48, 3-((6-Chloro-1-(2-(3-(1,1-dioxidothiomorpholino)azetidin-1-yl)-2-oxoethyl)-7-fluoro-2-methyl-1H-indol-3-yl)thio)benzoic acid] | ≤ 500
Cc1c(Sc2cccc(C(=O)O)c2)c2ccc(Cl)c(F)c2n1CC(=O)N1CCC(O)(C(F)(F)F)C1 (centres unmarked) [Compound 1-37, 3-((6-Chloro-7-fluoro-1-(2-(3-hydroxy-3-(trifluoromethyl)pyrrolidin-1-yl)-2-oxoethyl)-2-methyl-1H-indol-3-yl)thio)benzoic acid] | ≤ 500
Cc1c(Sc2cccc(C(=O)O)c2)c2ccc(Cl)c(F)c2n1CC(=O)N1CCC(c2ccc(F)cc2)C1 (single isomer, unassigned; enantiomer a) [Compound 1-74, 3-((6-Chloro-7-fluoro-1-(2-(3-(4-fluorophenyl)pyrrolidin-1-yl)-2-oxoethyl)-2-methyl-1H-indol-3-yl)thio)benzoic acid Enantiomer A] | 500 to 3000
Cc1c(Sc2cccc(C(=O)O)c2)c2ccc(Cl)c(F)c2n1CC(=O)NCC(F)(F)F [Compound 1-5, 3-((6-Chloro-7-fluoro-2-methyl-1-(2-oxo-2-((2,2,2-trifluoroethyl)amino)ethyl)-1H-indol-3-yl)thio)benzoic acid] | ≤ 500
